From patent US20240116985A1, “STAPLED PEPTIDES AND METHODS THEREOF” (priority 2020, published 2024)
Read-outs that look alike come from different tables or passages of the source.

How the values were obtained:
[1] = target: T1, full-length beta-Catenin (Uniprot ID P35222) (Homo sapiens, UniProt P35222); experiment: Fluorescence polarization IC50 (beta-catenin / 5FAM-TCF4 10-53 competition); type: binding
T1 construct: 10 nM full-length beta-Catenin (Uniprot ID P35222)
T1 sequence (P35222 1-781): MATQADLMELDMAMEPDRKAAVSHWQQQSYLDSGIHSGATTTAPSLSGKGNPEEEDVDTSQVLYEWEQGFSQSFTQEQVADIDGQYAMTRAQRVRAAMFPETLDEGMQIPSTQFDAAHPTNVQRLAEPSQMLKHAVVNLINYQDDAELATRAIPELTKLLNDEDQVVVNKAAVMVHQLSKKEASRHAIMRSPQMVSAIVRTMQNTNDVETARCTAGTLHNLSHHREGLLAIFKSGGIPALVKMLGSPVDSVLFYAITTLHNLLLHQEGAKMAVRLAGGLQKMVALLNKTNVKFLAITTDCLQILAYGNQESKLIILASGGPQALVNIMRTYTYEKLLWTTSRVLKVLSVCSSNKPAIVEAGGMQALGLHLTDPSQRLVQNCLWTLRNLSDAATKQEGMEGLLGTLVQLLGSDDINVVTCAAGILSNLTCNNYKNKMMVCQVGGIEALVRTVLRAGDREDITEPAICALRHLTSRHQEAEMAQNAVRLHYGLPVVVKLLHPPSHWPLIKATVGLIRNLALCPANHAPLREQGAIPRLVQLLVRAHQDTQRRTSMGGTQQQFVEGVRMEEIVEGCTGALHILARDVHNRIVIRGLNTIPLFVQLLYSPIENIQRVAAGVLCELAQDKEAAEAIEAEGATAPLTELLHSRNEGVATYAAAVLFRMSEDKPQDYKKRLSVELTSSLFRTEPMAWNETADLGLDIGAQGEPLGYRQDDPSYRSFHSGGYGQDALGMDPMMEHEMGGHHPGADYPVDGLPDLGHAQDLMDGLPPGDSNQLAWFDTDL

CHI Log D procedure = type: physicochemical; settings: for chromatographic logD: pH 7.4, CHI Log D
[2] = fluorescence polarization, read-out: beta-Catenin FP IC50
[3] = fluorescence polarization, beta-catenin, read-out: FP EC50

`CC[C@H](C)[C@@H]1NC(=O)[C@H](CC(=O)O)NC(=O)[C@]2(CC=CCCCC3(CCCC=CCCCCCC[C@@](C)(C(=O)N[C@@H](Cc4ccccc4)C(=O)N[C@@H](Cc4csc5ccccc45)C(=O)N[C@@H](CCC(N)=O)C(N)=O)NC(=O)[C@H](CCC(N)=O)NC(=O)[C@H](Cc4ccccc4)NC(=O)[C@H](C)NC(=O)[C@H](C)NC(=O)[C@H](CN(CC)CC(=O)O)NC(=O)[C@H](CC(=O)O)NC3=O)NC1=O)CCCN2C(C)=O` (stereo partly drawn) [I-609, Ac-PL3-Asp-Ile-B5-Asp-EtGa-Ala-Ala-Phe-Gln-S8-Phe-BztA-Gln-NH2] gave an IC50 [1, 2] of 80 nM, an IC50 ([1]; read-out: FP EC50) of 80 nM and an IC50 ([1]; read-out: bCat FP IC50) of 80 nM. The “CHI Log D” value (CHI Log D procedure; pH 7.4) was 2.534 and the logD (CHI Log D procedure; pH 7.4) was 2.5.
With `CC(=O)N1CCC[C@]12CC=CCCCC1(CCCC=CCCCCCC[C@@](C)(C(=O)N[C@@H](Cc3ccccc3)C(=O)N[C@@H](Cc3csc4ccccc34)C(=O)N[C@@H](CCC(N)=O)C(N)=O)NC(=O)[C@H](CCC(N)=O)NC(=O)[C@H](Cc3ccccc3)NC(=O)[C@H](C)NC(=O)[C@H](C)NC(=O)[C@H](CCC(=O)O)NC(=O)[C@H](CC(=O)O)NC1=O)NC(=O)[C@H](CCCCNC(=O)CN=[N+]=[N-])NC(=O)[C@H](CC(=O)O)NC2=O` (stereo partly drawn) [I-589, Ac-PL3-Asp-[AzAc]Lys-B5-Asp-Glu-Ala-Ala-Phe-Gln-S8-Phe-BztA-Gln-NH2] the IC50 ([1]; read-out: FP EC50) was 48 nM and the “CHI Log D” value (CHI Log D procedure; pH 7.4) was 2.119.
In the case of `CC(=O)N1CCC[C@]12CC=CCCCC1(CCCC=CCCCCCC[C@@](C)(C(=O)N[C@@H](Cc3ccccc3)C(=O)N[C@@H](Cc3csc4ccccc34)C(=O)N[C@@H](CCC(N)=O)C(N)=O)NC(=O)[C@H](CC(N)=O)NC(=O)[C@H](Cc3ccccc3)NC(=O)[C@H](C)NC(=O)[C@H](C)NC(=O)[C@H](CC(=O)O)NC(=O)[C@H](CC(=O)O)NC1=O)NC(=O)[C@H](CCC(C)C)NC(=O)[C@H](CC(=O)O)NC2=O` (stereo partly drawn) [I-547, Ac-PL3-Asp-hLeu-B5-Asp-Asp-Ala-Ala-Phe-Asn-S8-Phe-BztA-Gln-NH2], the IC50 [1, 2] is reported as 43 nM, the IC50 ([1]; read-out: FP EC50) is reported as 43 nM and the “CHI Log D” value (CHI Log D procedure; pH 7.4) is reported as 2.45.
In the case of `CC[C@H](C)[C@@H]1NC(=O)C[C@H](CC(=O)O)NC(=O)[C@]2(CC=CCCCC3(CCCC=CCCCCCC[C@@](C)(C(=O)N[C@@H](Cc4ccccc4)C(=O)N[C@@H](Cc4csc5ccccc45)C(=O)N[C@@H](CCC(N)=O)C(N)=O)NC(=O)[C@H](CCC(N)=O)NC(=O)[C@H](Cc4ccccc4)NC(=O)[C@H](C)NC(=O)[C@H](C)NC(=O)[C@H](CCC(=O)O)NC(=O)[C@H](CC(=O)O)NC3=O)NC1=O)CCCN2C(C)=O` (stereo partly drawn) [I-671, Ac-PL3-RbGlu-Ile-B5-Asp-Glu-Ala-Ala-Phe-Gln-S8-Phe-BztA-Gln-NH2], the IC50 [1, 2] is reported as 3140 nM, the IC50 ([1]; read-out: FP EC50) is reported as 3140 nM and the “CHI Log D” value (CHI Log D procedure; pH 7.4) is reported as 2.25.
With `CC[C@H](C)[C@@H]1NC(=O)C[C@@H](CC(=O)O)NC(=O)[C@]2(CC=CCCCC3(CCCC=CCCCCCC[C@@](C)(C(=O)N[C@@H](Cc4ccccc4)C(=O)N[C@@H](Cc4csc5ccccc45)C(=O)N[C@@H](CCC(N)=O)C(N)=O)NC(=O)[C@H](CCC(N)=O)NC(=O)[C@H](Cc4ccccc4)NC(=O)[C@H](C)NC(=O)[C@H](C)NC(=O)[C@H](CCC(=O)O)NC(=O)[C@H](CC(=O)O)NC3=O)NC1=O)CCCN2C(C)=O` (stereo partly drawn) [I-672, Ac-PL3-SbGlu-Ile-B5-Asp-Glu-Ala-Ala-Phe-Gln-S8-Phe-BztA-Gln-NH2] the IC50 [1, 2] was 5000 nM and the chromatographic logD (CHI Log D procedure) was 1.9.
In the case of `CC(=O)N1CCC[C@]12CC=CCCCC1(CCCC=CCOC(=O)N(C)CCC[C@@](C)(C(=O)N[C@@H](Cc3cccc(F)c3)C(=O)N[C@@H](Cc3csc4ccccc34)C(=O)N[C@@H](CCC(N)=O)C(N)=O)NC(=O)[C@H](CCC(N)=O)NC(=O)[C@H](Cc3cccc(C)c3)NC(=O)[C@H](C)NC(=O)[C@H](C)NC(=O)[C@H](CN(CC(=O)O)CC(F)(F)F)NC(=O)[C@H](CC(=O)O)NC1=O)NC(=O)[C@H](C)NC(=O)[C@H](CC(=O)O)NC2=O` (stereo partly drawn) [I-405, Ac-PL3-Asp-Ala-B5-Asp-TfeGA-Ala-Ala-3MeF-Gln-SeN-3FF-BztA-Gln-NH2], the IC50 [1, 2] is reported as 3820 nM and the chromatographic logD (CHI Log D procedure) is reported as 1.72.
In the case of `CC(=O)N1CCC[C@]12CC=CCCCC1(CCCC=CCCCCCC[C@@](C)(C(=O)N[C@@H](Cc3ccccc3Cl)C(=O)N[C@@H](Cc3csc4ccccc34)C(=O)N[C@@H](C(N)=O)[C@H](C)O)NC(=O)[C@H]([C@@H](C)O)NC(=O)[C@H](Cc3ccccc3)NC(=O)[C@H](C)NC(=O)[C@H](C)NC(=O)[C@H](CCC(=O)O)NC(=O)[C@H](CC(=O)O)NC1=O)NC(=O)[C@H](CC(C)(C)C)NC(=O)[C@H](CC(=O)O)NC2=O` (stereo partly drawn) [I-1094, Ac-PL3-Asp-Npg-B5-Asp-Glu-Ala-Ala-Phe-Thr-S8-2C1F-BztA-dThr-NH2], the IC50 [1, 3] is reported as 46 nM, the IC50 ([1]; read-out: beta-Catenin FP IC50) is reported as 46 nM and the “CHI Log D” value (CHI Log D procedure; pH 7.4) is reported as 3.271.
In the case of `CC[C@H](C)[C@@H]1NC(=O)[C@H](CC(=O)O)NC(=O)[C@]2(CC=CCCCC3(CCCC=CCCCCCC[C@@](C)(C(=O)N[C@@H](Cc4ccccc4)C(=O)N[C@@H](Cc4csc5ccccc45)C(=O)N[C@@H](Cc4c[nH]cn4)C(N)=O)NC(=O)[C@H](CC(N)=O)NC(=O)[C@H](Cc4ccccc4)NC(=O)[C@H](C)NC(=O)[C@H](C)NC(=O)[C@H](CC(=O)O)NC(=O)[C@H](CC(=O)O)NC3=O)NC1=O)CCCN2C(C)=O` (stereo partly drawn) [I-469, Ac-PL3-Asp-Ile-B5-Asp-Asp-Ala-Ala-Phe-Asn-S8-Phe-BztA-His-NH2], the IC50 [1, 2] is reported as 27 nM, the IC50 ([1]; read-out: FP EC50) is reported as 27 nM and the “CHI Log D” value (CHI Log D procedure; pH 7.4) is reported as 2.354.
For `CC(=O)N1CCC[C@]12CC=CCCCC1(CCCC=CCCCCCC[C@@](C)(C(=O)N[C@@H](Cc3ccccc3)C(=O)N[C@@H](Cc3csc4ccccc34)C(=O)N(C)[C@@H](CO)C(N)=O)NC(=O)[C@H](CC(N)=O)NC(=O)[C@H](Cc3ccccc3)NC(=O)[C@H](C)NC(=O)[C@H](C)NC(=O)[C@H](CCC(=O)O)NC(=O)[C@H](CC(=O)O)NC1=O)NC(=O)[C@H](CC(C)C)NC(=O)[C@H](CC(=O)O)NC2=O` (stereo partly drawn) [I-760, Ac-PL3-Asp-Leu-B5-Asp-Glu-Ala-Ala-Phe-Asn-S8-Phe-BztA-NMeS-NH2], the IC50 ([1]; read-out: FP EC50) was 608 nM, the IC50 ([1]; read-out: beta-Catenin FP IC50) was 608 nM and the “CHI Log D” value (CHI Log D procedure; pH 7.4) was 2.66.
In the case of `CC(=O)N1CCC[C@]12CC=CCCCC1(CCCC=CCCCCCC[C@@](C)(C(=O)N[C@@H](Cc3ccccc3)C(=O)N[C@@H](Cc3csc4ccccc34)C(=O)N(C)[C@@H](CO)C(N)=O)NC(=O)[C@H](CC(N)=O)NC(=O)[C@H](Cc3ccccc3)NC(=O)[C@H](C)NC(=O)[C@H](C)NC(=O)[C@H](CCC(=O)O)NC(=O)[C@H](CC(=O)O)NC1=O)NC(=O)[C@H](CC(C)C)NC(=O)[C@H](CC(=O)O)NC2=O` (stereo partly drawn) [I-759, Ac-PL3-Asp-Leu-B5-Asp-Glu-Ala-Ala-Phe-Asn-S8-Phe-BztA-NMeS-NH2], the IC50 ([1]; read-out: FP EC50) is reported as 1530 nM, the IC50 ([1]; read-out: beta-Catenin FP IC50) is reported as 1530 nM and the “CHI Log D” value (CHI Log D procedure; pH 7.4) is reported as 2.582.
With `CC(=O)N1CCC[C@]12CC=CCCCC1(CCCC=CCCCCCC[C@@](C)(C(=O)N[C@@H](Cc3cc(F)cc(F)c3)C(=O)N[C@@H](Cc3csc4ccccc34)C(=O)N[C@@H](CCC(N)=O)C(N)=O)NC(=O)[C@H](C(C)C)NC(=O)[C@H](Cc3ccccc3)NC(=O)[C@H](C)NC(=O)[C@H](C)NC(=O)[C@H](CCC(=O)O)NC(=O)[C@H](CC(=O)O)NC1=O)NC(=O)[C@H](C)NC(=O)[C@H](CC(=O)O)NC2=O` (stereo partly drawn) [I-394, Ac-PL3-Asp-Ala-B5-Asp-Glu-Ala-Ala-Phe-Val-S8-35FF-BztA-Gln-NH2] the IC50 [1, 2] was 5000 nM and the chromatographic logD (CHI Log D procedure) was 3.86.
For `CC(=O)N1CCC[C@]12CC=CCCCC1(CCCC=CCOC(=O)N(C)CCC[C@@](C)(C(=O)N[C@@H](Cc3cccc(F)c3)C(=O)N[C@@H](Cc3csc4ccccc34)C(=O)N[C@@H](CCC(N)=O)C(N)=O)NC(=O)[C@H](CCC(N)=O)NC(=O)[C@H](Cc3ccccc3)NC(=O)[C@H](C)NC(=O)[C@H](C)NC(=O)[C@H](Cc3c[nH]cn3)NC(=O)[C@H](CC(=O)O)NC1=O)NC(=O)[C@H](C)NC(=O)[C@H](CC(=O)O)NC2=O` (stereo partly drawn) [I-400, Ac-PL3-Asp-Ala-B5-Asp-His-Ala-Ala-Phe-Gln-SeN-3FF-BztA-Gln-NH2], the IC50 [1, 2] was 3590 nM and the chromatographic logD (CHI Log D procedure) was 1.92.
In the case of `CC(=O)N1CCC[C@]12CC=CCCCC1(CCCC=CCOC(=O)N(C)CCC[C@@](C)(C(=O)N[C@@H](Cc3ccccc3)C(=O)N[C@@H](Cc3c[nH]c4ccccc34)C(=O)N[C@@H](CCC(N)=O)C(N)=O)NC(=O)[C@H](C(C)C)NC(=O)[C@H](Cc3ccccc3)NC(=O)[C@H](C)NC(=O)[C@H](C)NC(=O)[C@H](CCC(=O)O)NC(=O)[C@H](CC(=O)O)NC1=O)NC(=O)[C@H](C)NC(=O)[C@H](CC(=O)O)NC2=O` (stereo partly drawn) [I-131, Ac-PL3-Asp-Ala-B5-Asp-Glu-Ala-Ala-Phe-Val-SeN-Phe-Trp-Gln-NH2], the IC50 ([1]; Table E2-1, read-out: beta-Catenin FP IC50) is reported as 2160 nM, the IC50 [1, 3] is reported as 2160 nM and the “CHI Log D” value (CHI Log D procedure; pH 7.4) is reported as 1.496.
